Results as given in US20260223853A1, “PESTICIDALLY ACTIVE HETEROCYCLIC DERIVATIVES WITH SULFUR CONTAINING SUBSTITUENTS” (SYNGENTA CROP PROTECTION AG, priority 2023, published 2026).

Assays:
Format in all cases: in vivo
[1] = test system: Chilo suppressalis (Striped Rice Stemborer); assay: Example B1: Activity against Chilo suppressalis (striped rice stemborer), artificial diet, L2 larvae; conditions: 144 h, application rate of 200 ppm, 6 days after infestation, in comparison to untreated samples, read-out: control (at least one of mortality, anti-feedant effect, growth inhibition)
Protocol: Example B1: Activity Against Chilo suppressalis (Striped Rice Stemborer)
24-well microtiter plates with artificial diet were treated with aqueous test solutions prepared from 10′000 ppm DMSO stock solutions by pipetting. After drying, the plates were infested with L2 larvae (6-8 per well). The samples were assessed for mortality, anti-feeding effect, and growth inhibition in comparison to untreated samples 6 days after infestation. Control of Chilo suppressalis by a test sample is given when at least one of the categories mortality, anti-feedant effect, and growth inhibition is higher than the untreated sample.

[2] = test system: Diabrotica balteata (Corn Root Worm); assay: Example B2: Activity against Diabrotica balteata (corn root worm), maize sprouts, L2 larvae; conditions: 96 h, application rate of 200 ppm, 4 days after infestation, in comparison to untreated samples, read-out: effect in at least one of the two categories (mortality or growth inhibition)
Protocol: Example B2: Activity Against Diabrotica balteata (Corn Root Worm)
Maize sprouts placed onto an agar layer in 24-well microtiter plates were treated with aqueous test solutions prepared from 10′000 ppm DMSO stock solutions by spraying. After drying, the plates were infested with L2 larvae (6 to 10 per well). The samples were assessed for mortality and growth inhibition in comparison to untreated samples 4 days after infestation.

[3] = test system: Myzus persicae (Green peach aphid); assay: Example B4: Activity against Myzus persicae (green peach aphid), feeding/contact activity, sunflower leaf discs; conditions: foliar, 144 h, application rate of 200 ppm, 6 days after infestation
Protocol: Example B4: Activity against Myzus persicae (Green peach aphid) Feeding/Contact activity Sunflower leaf discs were placed onto agar in a 24-well microtiter plate and sprayed with aqueous test solutions prepared from 10′000 ppm DMSO stock solutions. After drying, the leaf discs were infested with an aphid population of mixed ages. The samples were assessed for mortality 6 days after infestation.

[4] = test system: Plutella xylostella (Diamond Back Moth); assay: Example B6: Activity against Plutella xylostella (diamond back moth), artificial diet, eggs; conditions: 192 h, application rate of 200 ppm, 8 days after infestation, in comparison to untreated samples, read-out: effect in at least one of the two categories (mortality or growth inhibition)
Protocol: Example B6: Activity Against Plutella xylostella (Diamond Back Moth)
24-well microtiter plates with artificial diet were treated with aqueous test solutions prepared from 10′000 ppm DMSO stock solutions by pipetting. After drying, Plutella eggs were pipetted through a plastic stencil onto a gel blotting paper and the plate was closed with it. The samples were assessed for mortality and growth inhibition in comparison to untreated samples 8 days after infestation. The following compounds gave an effect of at least 80% in at least one of the two categories (mortality or growth inhibition) at an application rate of 200 ppm: P.1, P.2, P.3, P.4, P.5, P.6, P.7, P.8, P.9, P.10, P.11, P.12.

[5] = test system: Spodoptera littoralis (Egyptian Cotton Leaf Worm); assay: Example B7: Activity against Spodoptera littoralis (Egyptian cotton leaf worm), cotton leaf discs, L1 larvae; conditions: foliar, 72 h, application rate of 200 ppm, 3 days after infestation, in comparison to untreated samples, read-out: control (at least one of mortality, anti-feedant effect, growth inhibition)
Protocol: Example B7: Activity Against Spodoptera littoralis (Egyptian Cotton Leaf Worm)
Cotton leaf discs were placed onto agar in 24-well microtiter plates and sprayed with aqueous test solutions prepared from 10′000 ppm DMSO stock solutions. After drying the leaf discs were infested with five L1 larvae. The samples were assessed for mortality, anti-feeding effect, and growth inhibition in comparison to untreated samples 3 days after infestation. Control of Spodoptera littoralis by a test sample is given when at least one of the categories mortality, anti-feedant effect, and growth inhibition is higher than the untreated sample.

[6] = test system: Euschistus heros (Neotropical Brown Stink Bug); assay: Example B3: Activity against Euschistus heros (neotropical brown stink bug), soybean leaves, N2 nymphs; conditions: 120 h, application rate of 200 ppm, 5 days after infestation, in comparison to untreated samples, read-out: effect in at least one of the two categories (mortality or growth inhibition)
Protocol: Example B3: Activity Against Euschistus heros (Neotropical Brown Stink Bug)
Soybean leaves on agar in 24-well microtiter plates were sprayed with aqueous test solutions prepared from 10′000 ppm DMSO stock solutions. After drying the leaves were infested with N2 nymphs. The samples were assessed for mortality and growth inhibition in comparison to untreated samples 5 days after infestation.

[7] = test system: Myzus persicae (Green peach aphid); assay: Example B5: Activity against Myzus persicae (green peach aphid), systemic activity, pea seedlings; conditions: 144 h, test rate of 24 ppm, 6 days after placing seedlings into test solutions
Protocol: Example B5: Activity Against Myzus persicae (Green Peach Aphid) Systemic Activity
Roots of pea seedlings infested with an aphid population of mixed ages were placed directly into aqueous test solutions prepared from 10′000 DMSO stock solutions. The samples were assessed for mortality 6 days after placing seedlings into test solutions.

CCS(=O)(=O)c1c(N2CCc3nc(C(F)(F)F)ccc3C2=O)nc2cc(C(F)(F)F)ccn12 [P.1, 6-[3-ethylsulfonyl-7-(trifluoromethyl)imidazo[1,2-a]pyridin-2-yl]-2-(trifluoromethyl)-7,8-dihydro-1,6-naphthyridin-5-one]
≥ 80%: percent control (mortality, anti-feedant effect or growth inhibition) at 200 ppm [1] | percent effect (mortality or growth inhibition) at 200 ppm [2] | mortality at 200 ppm [3] | percent effect (mortality or growth inhibition) at 200 ppm [4] | control at 200 ppm [5]

CCS(=O)(=O)c1cc(C2(C#N)CC2)cnc1N1CCc2cc(C(F)(F)F)ccc2C1=O [P.2, 1-[5-ethylsulfonyl-6-[1-oxo-6-(trifluoromethyl)-3,4-dihydroisoquinolin-2-yl]-3-pyridyl]cyclopropane-carbonitrile]
≥ 80%: percent control (mortality, anti-feedant effect or growth inhibition) at 200 ppm [1] | percent effect (mortality or growth inhibition) at 200 ppm [2] | percent effect (mortality or growth inhibition) at 200 ppm [6] | mortality at 200 ppm [3] | percent effect (mortality or growth inhibition) at 200 ppm [4]

CCS(=O)(=O)c1cc(C2(C#N)CC2)cnc1N1CCc2nc(C(F)(F)F)ccc2C1=O [P.3, 1-[5-ethylsulfonyl-6-[5-oxo-2-(trifluoromethyl)-7,8-dihydro-1,6-naphthyridin-6-yl]-3-pyridyl] cyclopropane-carbonitrile]
≥ 80%: percent control (mortality, anti-feedant effect or growth inhibition) at 200 ppm [1] | percent effect (mortality or growth inhibition) at 200 ppm [2] | percent effect (mortality or growth inhibition) at 200 ppm [6] | mortality at 200 ppm [3] | mortality at 24 ppm [7] | percent effect (mortality or growth inhibition) at 200 ppm [4] | control at 200 ppm [5]

CCS(=O)(=O)c1cc(C2(C#N)CC2)cnc1N1CCc2cc(OC(F)(F)F)ccc2C1=O [P.4, 1-[5-ethylsulfonyl-6-[1-oxo-6-(trifluoromethoxy)-3,4-dihydroisoquinolin-2-yl]-3-pyridyl] cyclopropane-carbonitrile]
≥ 80%: percent control (mortality, anti-feedant effect or growth inhibition) at 200 ppm [1] | percent effect (mortality or growth inhibition) at 200 ppm [2] | percent effect (mortality or growth inhibition) at 200 ppm [6] | mortality at 200 ppm [3] | percent effect (mortality or growth inhibition) at 200 ppm [4] | control at 200 ppm [5]

CCS(=O)(=O)c1cc(C2(C#N)CC2)cnc1N1CCc2nc(C(F)(F)C(F)(F)F)ccc2C1=O [P.5, 1-[5-ethylsulfonyl-6-[5-oxo-2-(1,1,2,2,2-pentafluoroethyl)-7,8-dihydro-1,6-naphthyridin-6-yl]-3-pyridyl] cyclopropane-carbonitrile]
≥ 80%: percent control (mortality, anti-feedant effect or growth inhibition) at 200 ppm [1] | percent effect (mortality or growth inhibition) at 200 ppm [2] | percent effect (mortality or growth inhibition) at 200 ppm [6] | percent effect (mortality or growth inhibition) at 200 ppm [4] | control at 200 ppm [5]

CCS(=O)(=O)c1cc(C2(C#N)CC2)cnc1N1CCc2c(ccc3c2OC(F)(F)O3)C1=O [P.6, 1-[6-(2,2-difluoro-6-oxo-8,9-dihydro-[1,3]dioxolo[4,5-f]isoquinolin-7-yl)-5-ethylsulfonyl-3-pyridyl]cyclopropane-carbonitrile]
≥ 80%: percent control (mortality, anti-feedant effect or growth inhibition) at 200 ppm [1] | percent effect (mortality or growth inhibition) at 200 ppm [2] | percent effect (mortality or growth inhibition) at 200 ppm [6] | mortality at 200 ppm [3] | percent effect (mortality or growth inhibition) at 200 ppm [4] | control at 200 ppm [5]

CCS(=O)(=O)c1cc(C2(C#N)CC2)cnc1N1CCc2nc(OC3CC3)ccc2C1=O [P.7, 1-[6-[2-(cyclopropoxy)-5-oxo-7,8-dihydro-1,6-naphthyridin-6-yl]-5-ethylsulfonyl-3-pyridyl]cyclopropane-carbonitrile]
≥ 80%: percent control (mortality, anti-feedant effect or growth inhibition) at 200 ppm [1] | percent effect (mortality or growth inhibition) at 200 ppm [2] | mortality at 200 ppm [3] | mortality at 24 ppm [7] | percent effect (mortality or growth inhibition) at 200 ppm [4] | control at 200 ppm [5]

CCS(=O)(=O)c1cc(C2(C#N)CC2)cnc1N1CCc2nc(Cl)ccc2C1=O [P.8, 1-[6-(2-chloro-5-oxo-7,8-dihydro-1,6-naphthyridin-6-yl)-5-ethylsulfonyl-3-pyridyl]cyclopropane-carbonitrile]
≥ 80%: mortality at 24 ppm [7] | percent effect (mortality or growth inhibition) at 200 ppm [4] | control at 200 ppm [5]

CCS(=O)(=O)c1cc(C2(C#N)CC2)cnc1N1CCc2nc(OCC(F)(F)Cl)ccc2C1=O [P.9, 1-[6-[2-(2-chloro-2,2-difluoro-ethoxy)-5-oxo-7,8-dihydro-1,6-naphthyridin-6-yl]-5-ethylsulfonyl-3-pyridyl]cyclopropane-carbonitrile]
≥ 80%: percent control (mortality, anti-feedant effect or growth inhibition) at 200 ppm [1] | percent effect (mortality or growth inhibition) at 200 ppm [2] | percent effect (mortality or growth inhibition) at 200 ppm [6] | mortality at 200 ppm [3] | percent effect (mortality or growth inhibition) at 200 ppm [4] | control at 200 ppm [5]

CCS(=O)(=O)c1cc(C2(C#N)CC2)cnc1N1CCc2nc(OCC(F)(F)C(F)F)ccc2C1=O [P.10, 1-[5-ethylsulfonyl-6-[5-oxo-2-(2,2,3,3-tetrafluoropropoxy)-7,8-dihydro-1,6-naphthyridin-6-yl]-3-pyridyl] cyclopropane-carbonitrile]
≥ 80%: percent control (mortality, anti-feedant effect or growth inhibition) at 200 ppm [1] | percent effect (mortality or growth inhibition) at 200 ppm [2] | mortality at 200 ppm [3] | percent effect (mortality or growth inhibition) at 200 ppm [4] | control at 200 ppm [5]

CCS(=O)(=O)c1cc(C2(C#N)CC2)cnc1N1CCc2nc(OCC(Cl)(Cl)Cl)ccc2C1=O [P.11, 1-[5-ethylsulfonyl-6-[5-oxo-2-(2,2,2-trichloroethoxy)-7,8-dihydro-1,6-naphthyridin-6-yl]-3-pyridyl]cyclopropane-carbonitrile]
≥ 80%: percent control (mortality, anti-feedant effect or growth inhibition) at 200 ppm [1] | percent effect (mortality or growth inhibition) at 200 ppm [4] | control at 200 ppm [5]

CCS(=O)(=O)c1cc(C2(C#N)CC2)cnc1N1CCc2nc(OCC(F)(F)C(F)(F)F)ccc2C1=O [P.12, 1-[5-ethylsulfonyl-6-[5-oxo-2-(2,2,3,3,3-pentafluoropropoxy)-7,8-dihydro-1,6-naphthyridin-6-yl]-3-pyridyl]cyclopropane-carbonitrile]
≥ 80%: percent control (mortality, anti-feedant effect or growth inhibition) at 200 ppm [1] | percent effect (mortality or growth inhibition) at 200 ppm [2] | mortality at 200 ppm [3] | percent effect (mortality or growth inhibition) at 200 ppm [4] | control at 200 ppm [5]

CCS(=O)(=O)c1cc(C2(C#N)CC2)cnc1N1CCc2nc(OCC(Cl)(Cl)C(F)(F)F)ccc2C1=O [P.13, 1-[6-[2-(2,2-dichloro-3,3,3-trifluoro-propoxy)-5-oxo-7,8-dihydro-1,6-naphthyridin-6-yl]-5-ethylsulfonyl-3-pyridyl]cyclopropane-carbonitrile]
≥ 80%: percent control (mortality, anti-feedant effect or growth inhibition) at 200 ppm [1] | control at 200 ppm [5]
